The nature of data set [1]: Decomplexation of radiolabeled probe by H2S (radio-TLC). Here is the method: (§1) The ligand ATSM-FITC(4) was radiolabeled with ^64CuCl2 ions in 0.1M ammonium acetate buffer (pH 6.8) at 60° C., with a radiochemical yield of >97% (FIG. 3). Among the various positron-emitting radioisotopes of copper (^60Cu, ^61Cu, ^62Cu, or ^64Cu), Cu-64 has a moderately long half-life (12.7 hours) and a decay mode favorable for PET imaging (17.8% β+ decay). […] The proportion of demetalized ^64CuS in the intact ^64Cu-ATSM-FITC(6) complex may be easily quantified by radio-TLC analysis. The Rf value of ^64Cu-ATSM-FITC(6) was 0.72 on a silica plate with mobile phase (ethyl acetate methanol (95:5)), and ^64CuS remained at the origin of the TLC plate (FIG. 22). As the concentration of H2S increased, the decomplexation percentage of ^64Cu-ATSM-FITC(6) increased proportionally and reached a plateau at 20 μM of H2S (FIG. 15C). […] The lipophilicity of the radiotracer was measured using the general octanol-PBS partitioning method.

The subject of data set [2] is brain H2S. Description: LPS neuroinflammation model, PET imaging and γ-counter quantification of brain hemispheres. It is filed as in vivo, mice. Particulars: LPS-treated animals. As to the method: Mice were mounted in a stereotaxic frame under isoflurane anesthesia. Sterile saline (control) or LPS (5 mg/mL, Sigma-Aldrich, Saint Louis, MO, USA, catalog number: L2630) was injected unilaterally into the right striatum (anterior-posterior [AP], 0.5 mm, medial) of each mouse by using a 28-gauge Hamilton syringe attached to an automatic microinjector. Injection was carried out at a rate of 0.2 μL/min for 10 minutes. After each injection, the needle was left in place for 5 minutes before being slowly retracted.
Brain inflammation and control models were prepared 2 days prior to the study on PET imaging (n=5 each). ^64Cu-ATSM-FITC(6) (˜18 MBq, 200 μL of 5% DMSO/PBS) was injected into mice, and the mice were scanned for 10 minutes at 10 minutes after the injection. In addition, Sprague Dawley rats were injected with radiolabeled ^64Cu-ATSM-FITC(6) (˜18 MBq, 200 μL of 5% DMSO/PBS) through the tail vein, and the mice were scanned for 20 minutes at 1 hour after the injection. CT images were generated immediately without the use of additional contrast agents. All PET images were reconstructed by using the Mediso Tera-Tomo 3D iterative algorithm, together with corrections for interaction depth, radionuclide decay, detector normalization, decision dead time, and attenuation.

Data set [3] concerns brain H2S. Description: PET/CT imaging in Parkinson's disease rat model. The following applies: PET/CT 1 hour after injection of about 1 mCi. It is filed as in vivo, SD rats. As to the method:
The Parkinson's disease-induced rat model was prepared by taking 7-week-old SD rats and injecting 6-hydroxydopamine (6-OHDA) into the medial forebrain bundle using a Hamilton syringe after drilling a small 1.5 mm hole in the rat's skull near the parietal region at 8 weeks of age.
In addition, the uptake pattern was also different between normal rats and the Parkinson's disease rat model (FIG. 23).

Data set [4] can be described thus: Lipophilicity, octanol-PBS partitioning. The class given is physicochemical. Here is the method: as §1
The nature of data set [5]: Biodistribution in normal BALB/c mice (γ-counter). The class given is in vivo. As to the method:
BALB/c mice (male, 9 weeks old) were used to investigate the systemic distribution and clearance rate of ^64Cu-ATSM-FITC (6). ^64Cu-ATSM-FITC (6) with a radioactivity of 0.56 to 0.74 MBq in a saline solution (5% DMSO, 200 μL) was injected into mice through the tail vein under anesthesia. […] Blood was drawn, and organs comprising heart, lung, muscle, fat, bone, spleen, kidney, liver, intestine, and brain were harvested, weighed, and analyzed by using a γ-counter (Wallac Wizard 1480, PerkinElmer, France). Radioactivity was calculated as percentage of injected dose per gram (% ID/g).
The distribution of ^64Cu-ATSM-aniline in the body was confirmed by using the same method as described in Experimental Methods 5 and 7 above.

Data set [6] can be described thus: In vitro stability in FBS and PBS (radio-TLC demetalization). The class given is in vitro ADME. The following applies: 37° C. As to the method:
^64Cu-ATSM-FITC(6) (10 μL, 37 MBq) was first mixed with FBS (500 μL) or PBS (pH 7.4) at the same volume, and the mixture was incubated at 37° C. Demetalization was monitored using radio-TLC (silica, MeOH:EtOAc=5:95) for up to 12 hours.
Radioactively labeled ^64Cu-ATSM-FITC(6) (10 μL, 37 MBq) was mixed with 100 μL of FBS or PBS at pH 7.4 in the same amount and incubated at 37° C. using a Thermomixer (500 rpm). In addition, demetalization was measured by radio-TLC (silica, MeOH:EtOAC=5:95) every 4 hours for up to 24 hours.

The test system of data set [7] is brain H2S. As to the kind of experiment: Animal PET/CT brain imaging, normal and AOAA-treated BALB/c mice. It is filed as in vivo. The following applies: 1 hour after injection. Here is the method:
Male BALB/c mice (6 to 9 weeks old) were purchased from Hyochang Bioscience (Daegu, Korea). All mice were housed at 20 to 24° C. together with sufficient water and commercial food under a 12-h day/night cycle. For studies on H2S inhibition, male BALB/c mice were injected intraperitoneally with AOAA ((O-(carboxymethyl) hydroxylamine hemihydrochloride, 10 mg/kg, Sigma-Aldrich (C13408-1G)), 1 hour before administered with ^64Cu-ATSM-FITC(6) into the tail vein.
Animal PET/CT images were obtained by using a nanoScan PET/CT scanner (PET 82S, Mediso, Budapest, Hungary). Radiolabeled ^64Cu-ATSM-FITC(6) (˜11 MBq, 200 μL of 5% DMSO/PBS) was injected via tail vein into normal and AOAA-treated BALB/c mice (n=4), and the mice were scanned for 20 minutes at 1 hour after the injection. For PET image-based quantification, regions of interest (ROIs) were manually drawn on the whole brain.
Detection was performed in 1:3 matching smode with four iterations with six subsets. Analysis of the acquired PET/CT images was performed by using the Mediso InterView Fusion software package. The uptake of ^64Cu-ATSM-FITC(6) in each tissue was normalized to the administered radioactive dose and animal body weight and expressed as the average percent injected dose per gram (% ID/g).

These results are taken from patent publication US20240390529A1, “DUAL-MODE PROBE FOR DETECTING HYDROGEN SULFIDE AND USE THEREOF” (KYUNGPOOK NATIONAL UNIVERSITY INDUSTRY-ACADEMIC COOPERATION …, priority 2022, published 2024).

The structures appear in SMILES notation.

On to `CNC([S-])=NN=C(C)C(C)=NN=C([S-])Nc1ccc(-c2c3ccc(=O)cc-3oc3cc(O)ccc23)c(C(=O)O)c1.[64Cu+2]` [^64Cu-ATSM-FITC(6)], for which the “reaction with H2S” value in data set [1] (forms insoluble ^64CuS precipitate) is recorded as “reacted immediately”. Moreover, the “H2S concentration at which decomplexation percentage reached a plateau” value in data set [1] (radio-TLC) was 20 µM. The “increase of radioactivity at the injection site (right hemisphere) versus left hemisphere” value in the data set with brain H2S [2] was 31%. Also, in the data set on brain H2S [3], the “uptake in brain regions in Parkinson's disease rat model versus normal rats” value was “significantly lower”. For the same molecule, the “log D7.4” value in data set [4] amounted to 1.70±0.05. Also, the “total injected activity found in the whole brain” value in data set [5] is recorded as “more than 3.3%”. In addition, the brain uptake result in data set [5] (at 5 minutes, maintained up to 2 hours after injection) is on record as “greater than 9 % ID/g”. Besides, the “uptake in the heart, lungs, and kidneys” value in data set [5] (initially high) is “gradually decreased over time”. Also, the “stability in FBS and PBS” value in data set [6] was “high stability”. Also, in data set [6] (FBS and PBS, up to 24 hours after incubation), the degradation entry is reported as “Less than 10%”. Moreover, the “brain uptake in PET imaging” value in the data set with brain H2S [7] (AOAA-treated mice (10 mg/kg i.p.)) came to 11.4±2.0 % ID/g; in the data set on brain H2S [7] (control mice) it was 15.0±1.8 % ID/g.
